According to patent US10130605B2, “Compositions for use in treating inflammatory bowel diseases and intestinal colitis” (TaiRx Inc., priority 2017, dated 2018):
“Also recorded” adds a separate entry of the source.

Key:
Assay type in all cases: in vivo
DSS-induced colitis mice [1] = assay: DSS-induced acute colitis in mouse: body weight, colon length, colon weight, general condition; conditions: for Colon length / Colon weight / Colon-to-BW ratio: colon-to-body weight ratio / BW: body weight on the day of sacrifice: sacrifice day 5; for Colon length / Colon weight / Colon-to-BW ratio: colon-to-body weight ratio: geometric mean ± SEM; for BW: body weight on the day of sacrifice: mean ± SEM, n=8
Protocol: (§1) Induction of acute colitis. Acute colitis was induced by giving mice with 2.5% DSS (MP Biomedicals) in a drinking water for 5 consecutive days. The DSS administration was taken place in two separate days; where the mice were divided into two groups based on their body weight before the day of the DSS administration.
(§2) Route of drug administration.
(§3) Treatment doses. Diacerein was administered at 2 dose levels of 30 and 60 mg/kg, once daily for 5 days.
(§4) Animals. Eight-week-old female C57BL/6 mice were obtained from Japan SLC, Inc. (Japan). All animals used in the study were housed and cared in accordance with the Japanese Pharmacological Society Guidelines for Animal Use.
The average body weight of mice is about 18-22 grams.
The viability, clinical signs and behavior were monitored daily. Body weight was recorded before the treatment. […] Mice were sacrificed by exsanguinations through direct cardiac puncture under isoflurane anesthesia (Pfizer Inc.). Colon length and weight were measured from the end of the cecum to the anus.
(§5) The pharmacological effects of aloe-emodin, emodin, and rhein were also respectively tested using the same protocol described above.

DSS-induced colitis mice [2] = assay: DSS-induced acute colitis in mouse: disease activity index (DAI) score; conditions: for DAI: Diacerein 30 and 60 mg/kg; for decrease in fecal blood score than the DSS-induced vehicle group: not statistically significant
Protocol: as §1, §2, §3, §4
Measurement of disease activity index score. A disease activity index (DAI) was calculated daily by summation of the following parameters: • (i) Weight loss (0=no weight loss; 1=1-5% weight loss; 2=6-10% weight loss; 3=11-15% weight loss; and 4=>15% weight loss); • (ii) Occult blood positivity (0=no bleeding; 1=occult blood test (+); 2=occult blood test (++); 3=occult blood test (+++); and 4=gross bleeding from the anus); and • (iii) Stool consistency (0=normal stools; 2=loose stools; 4=diarrhea).
as §5

DSS-induced colitis mice [3] = assay: DSS-induced acute colitis in mouse: histological analysis of HE-stained colon sections; conditions: for loss/damage of crypt and epithelium in colon sections vs DSS-induced vehicle group: FIGS. 5B-C, same protocol, dose not given; for loss of crypt and epithelium in HE-stained colon sections vs Vehicle group: FIG. 5A
Protocol: as §1, §2, §3, §4
Histological analyses. For HE staining, sections were cut from paraffin blocks of colon tissue prefixed in 10% neutral buffered formalin (Wako Pure Chemical Industries, Japan) and stained with Lillie-Mayer's Hematoxylin (Muto Pure Chemicals Co., Ltd., Japan) and eosin solution (Wako Pure Chemical Industries). Representative photos of the changes observed were captured from each group.
as §5

DSS-induced colitis mice [4] = assay: DSS-induced acute colitis in mouse: macroscopic scoring of colon tissue (colonic damage score); conditions: for colonic damage score / diarrhea score / thickness score / ulceration score: sacrifice day 5
Protocol: as §1, §2, §3, §4
Macroscopic scoring of colon tissue. Colonic damage was scored using the published criteria of measurement (Wallace et al, Gastroenterology, 1992, 102, 18-27). […]

[5] = summary b147-b150, same protocol, dose not given
[6] = summary b149-b150, same protocol, dose not given
[7] = summary b148-b149, same protocol, dose not given
[8] = Diacerein 30 mg/kg PO QD day 0-4
[9] = Diacerein 60 mg/kg PO QD day 0-4
[10] = Mesalazine 20 mg/kg PO QD day 0-4
[11] = Mesalazine 100 mg/kg PO QD day 0-4
[12] = Mesalazine 100 mg/kg, Day 2 and 3
[13] = Mesalazine, dose not given, Day 2 and 3
[14] = both Mesalazine groups (20 and 100 mg/kg), Day 5

O=C(O)c1cc(O)c2c(c1)C(=O)c1cccc(O)c1C2=O [Rhein, 4,5-Dihydroxyanthraquinone-2-carboxylic acid]
colon weight vs DSS-induced vehicle group (in words) (DSS-induced colitis mice [1]; same protocol, dose not given): significant improvement in colon weight | colon-to-body weight ratio vs DSS-induced vehicle group (in words) (DSS-induced colitis mice [1]; same protocol, dose not given): significant reduction in the colon-to-body weight ratio | prevention of the body weight loss by DSS-induction (in words) (DSS-induced colitis mice [1]; same protocol, dose not given): able to prevent the body weight loss | DAI results (in words) (DSS-induced colitis mice [2]; same protocol, dose not given): effective | body weight score (in words) (DSS-induced colitis mice [2]; [5]): significant effects on reducing the body weight score | diarrheal stool score (in words) (DSS-induced colitis mice [2]; [6]): significant effects on reducing the diarrheal stool score | loss/damage of crypt and epithelium in colon sections vs DSS-induced vehicle group (DSS-induced colitis mice [3]): less loss of crypt and epithelium; also recorded: clearly reduced

O=C1c2cccc(O)c2C(=O)c2c(O)cc(CO)cc21 [Aloe-emodin, 1,8-Dihydroxy-3-(hydroxymethyl)anthraquinone]
colon-to-body weight ratio vs DSS-induced vehicle group (in words) (DSS-induced colitis mice [1]; same protocol, dose not given): significant improvement in the colon-to-body weight ratio | prevention of the body weight loss by DSS-induction (in words) (DSS-induced colitis mice [1]; same protocol, dose not given): able to prevent the body weight loss | DAI results (in words) (DSS-induced colitis mice [2]; same protocol, dose not given): effective | body weight score (in words) (DSS-induced colitis mice [2]; [5]): significant effects on reducing the body weight score | fecal blood score (in words) (DSS-induced colitis mice [2]; [7]): significant effects on reducing the fecal blood score | loss/damage of crypt and epithelium in colon sections vs DSS-induced vehicle group (DSS-induced colitis mice [3]): less loss of crypt and epithelium; also recorded: clearly reduced

Cc1cc(O)c2c(c1)C(=O)c1cc(O)cc(O)c1C2=O [Emodin, 1,3,8-Trihydroxy-6-methyl-9,10-anthracenedione]
colon weight vs DSS-induced vehicle group (in words) (DSS-induced colitis mice [1]; same protocol, dose not given): significant improvement in colon weight | colon-to-body weight ratio vs DSS-induced vehicle group (in words) (DSS-induced colitis mice [1]; same protocol, dose not given): significant reduction in the colon-to-body weight ratio | prevention of the body weight loss by DSS-induction (in words) (DSS-induced colitis mice [1]; same protocol, dose not given): able to prevent the body weight loss | DAI results (in words) (DSS-induced colitis mice [2]; same protocol, dose not given): effective | body weight score (in words) (DSS-induced colitis mice [2]; [5]): significant effects on reducing | fecal blood score (in words) (DSS-induced colitis mice [2]; [7]): significant effects on reducing | diarrheal stool score (in words) (DSS-induced colitis mice [2]; [6]): significant effects on reducing

CC(=O)Oc1cccc2c1C(=O)c1c(OC(C)=O)cc(C(=O)O)cc1C2=O [Diacerein, 1,8-Diacetoxy-3-carboxyanthraquinone]
Colon length (DSS-induced colitis mice [1]; [8]): 5.6 ± 0.2 cm | Colon weight (DSS-induced colitis mice [1]; [8]): 211 ± 10 mg | Colon-to-BW ratio: colon-to-body weight ratio (DSS-induced colitis mice [1]; [8]): 1.2 ± 0.1% | BW: body weight on the day of sacrifice (DSS-induced colitis mice [1]; [8]): 17.8 ± 0.1 g | Colon length (DSS-induced colitis mice [1]; [9]): 5.4 ± 0.3 cm | Colon weight (DSS-induced colitis mice [1]; [9]): 211 ± 0.1 mg | Colon-to-BW ratio: colon-to-body weight ratio (DSS-induced colitis mice [1]; [9]): 1.2 ± 0.1% | BW: body weight on the day of sacrifice (DSS-induced colitis mice [1]; [9]): 17.8 ± 0.3 g | body weight changes (in words) (DSS-induced colitis mice [1]; Diacerein groups (30 and 60 mg/kg PO QD), 5-day treatment): maintain the body weights close to the Sham animals | increase in body weight on the day of sacrifice than the DSS-induced vehicle group (DSS-induced colitis mice [1]; both Diacerein groups (30 and 60 mg/kg PO QD), significant): 6.6% | fecal blood score vs Vehicle group (in words) (DSS-induced colitis mice [2]; Diacerein 30 mg/kg, during the treatment): decreased slight fecal blood | fecal blood score vs Vehicle group (in words) (DSS-induced colitis mice [2]; Diacerein 60 mg/kg, during the treatment): more significant reduction | DAI (DSS-induced colitis mice [2]; Day 4 (vehicle 6.4)): ~5.1 | DAI (DSS-induced colitis mice [2]; Day 5 (vehicle 7.1)): ~6.3 | body weight score (DSS-induced colitis mice [2]; Diacerein treatment groups (30 and 60 mg/kg), Day 4, p<0.05 (vehicle 1.0)): 0.1-0.3 | body weight score (DSS-induced colitis mice [2]; Diacerein treatment groups (30 and 60 mg/kg), Day 5 (vehicle 1.1)): 0.6-0.9 | decrease in fecal blood score than the DSS-induced vehicle group (DSS-induced colitis mice [2]; both Diacerein groups (30 and 60 mg/kg), Day 5): 11.4% | colonic damage score (DSS-induced colitis mice [4]; [8]): 4.1 ± 0.1 | diarrhea score (DSS-induced colitis mice [4]; [8]): 1.0 ± 0.0 | thickness score (DSS-induced colitis mice [4]; [8]): 1.0 ± 0.0 | ulceration score (DSS-induced colitis mice [4]; [8]): 2.1 ± 0.1 | decrease in colonic damage score than the DSS-induced vehicle group (DSS-induced colitis mice [4]; Diacerein 30 mg/kg, not statistically significant): 6.8% | diarrhea score vs DSS-induced vehicle group (in words) (DSS-induced colitis mice [4]; Diacerein 60 mg/kg): lower effect on diarrhea score than the DSS-induced vehicle group, but the observed effect was not statistically significant | colonic damage score (DSS-induced colitis mice [4]; [9]): 3.8 ± 0.1 | thickness score (DSS-induced colitis mice [4]; [9]): 0.9 ± 0.0 | ulceration score (DSS-induced colitis mice [4]; [9]): 2.0 ± 0.0 | decrease in colonic damage score than the DSS-induced vehicle group (DSS-induced colitis mice [4]; Diacerein 60 mg/kg, significant, p<0.05): 13.6% | loss of crypt and epithelium in HE-stained colon sections vs Vehicle group (DSS-induced colitis mice [3]; Diacerein treatment groups (30 and 60 mg/kg)): less loss of crypt and epithelium

Nc1ccc(O)c(C(=O)O)c1 [Mesalazine, 5-Amino-2-hydroxybenzoic acid]
colon weight vs DSS-induced vehicle group (in words) (DSS-induced colitis mice [1]; Mesalazine 20 mg/kg): significant improvement in colon weight | Colon length (DSS-induced colitis mice [1]; [10]): 5.0 ± 0.2 cm | Colon weight (DSS-induced colitis mice [1]; [10]): 202 ± 6 mg | Colon length (DSS-induced colitis mice [1]; [11]): 5.3 ± 0.3 cm | Colon weight (DSS-induced colitis mice [1]; [11]): 202 ± 8 mg | colon weight vs DSS-induced vehicle group (in words) (DSS-induced colitis mice [1]; Mesalazine (60 mg/kg)): lower effect on colon weight than the DSS-induced vehicle group | prevention of the body weight loss by DSS-induction (in words) (DSS-induced colitis mice [1]; Mesalazine (60 mg/kg)): able to prevent the body weight loss | improvement in colon length than the DSS-induced vehicle group (DSS-induced colitis mice [1]; both Mesalazine groups (20 and 100 mg/kg PO QD), not statistically significant): 3-9% | fecal blood score vs Vehicle group (in words) (DSS-induced colitis mice [2]; Mesalazine 20 mg/kg, only at Day 1): significant reduction | effect on DAI (in words) (DSS-induced colitis mice [2]; Mesalazine 20 mg/kg, throughout 5-day treatment): no effect | fecal blood score vs Vehicle group (in words) (DSS-induced colitis mice [2]; Mesalazine 100 mg/kg, Day 1 to 3): significant reduction | Diarrheal stool score vs Vehicle group (in words) (DSS-induced colitis mice [2]; [12]): significant reduction | effect on DAI (in words) (DSS-induced colitis mice [2]; [12]): significant reduction | effect on DAI (in words) (DSS-induced colitis mice [2]; Mesalazine 100 mg/kg, Day 4 or Day 5): no clear reduction in DAI | DAI results (in words) (DSS-induced colitis mice [2]; Mesalazine (60 mg/kg)): effective | body weight score (in words) (DSS-induced colitis mice [2]; Mesalazine (60 mg/kg)): significant effects on reducing the body weight score | diarrheal stool score (in words) (DSS-induced colitis mice [2]; [13]): significantly decreased | fecal blood score (in words) (DSS-induced colitis mice [2]; [13]): significantly decreased | body weight score (DSS-induced colitis mice [2]; both Mesalazine groups (20 and 100 mg/kg), Day 4): 1.0-1.3 | body weight score (DSS-induced colitis mice [2]; [14]): 1.6-1.9 | decrease in fecal blood score than the DSS-induced vehicle group (DSS-induced colitis mice [2]; [14]): 11.4% | diarrhea score vs DSS-induced vehicle group (in words) (DSS-induced colitis mice [4]; Mesalazine 20 mg/kg): significant decrease in diarrhea score | colonic damage score (DSS-induced colitis mice [4]; [10]): 3.5 ± 0.2 | thickness score (DSS-induced colitis mice [4]; [10]): 1.0 ± 0.0 | ulceration score (DSS-induced colitis mice [4]; [10]): 2.0 ± 0.0 | decrease in colonic damage score than the DSS-induced vehicle group (DSS-induced colitis mice [4]; Mesalazine 20 mg/kg, significant, p<0.05): 20.5% | colonic damage score (DSS-induced colitis mice [4]; [11]): 4.0 ± 0.0 | diarrhea score (DSS-induced colitis mice [4]; [11]): 1.0 ± 0.0 | thickness score (DSS-induced colitis mice [4]; [11]): 1.0 ± 0.0 | ulceration score (DSS-induced colitis mice [4]; [11]): 2.0 ± 0.0 | decrease in colonic damage score than the DSS-induced vehicle group (DSS-induced colitis mice [4]; Mesalazine 100 mg/kg, not statistically significant): 9.1% | loss of crypt and epithelium in HE-stained colon sections vs Vehicle group (DSS-induced colitis mice [3]; Mesalazine treatment alone (20 and 100 mg/kg)): No significant effect | loss/damage of crypt and epithelium in colon sections vs DSS-induced vehicle group (DSS-induced colitis mice [3]): less loss of crypt and epithelium | crypt and epithelium damages induced by DSS, microscopic examination of colon sections (DSS-induced colitis mice [3]; Mesalazine treatments (20 and 60 mg/kg)): clearly reduced
